Assay results reported in PMC12136442, “Cholesterol metabolism and intrabacterial potassium homeostasis are intrinsically related in Mycobacterium tuberculosis” (PLOS Pathogens, 2025).

Experiments:
CeoB [1] = target: T1, CeoB (Mycobacterium tuberculosis, UniProt Q7D6R7)
MceG = target: T2, MceG (Mycobacterium tuberculosis, UniProt P9WQL5)
T2 construct: gene mkl

CeoB [2] = target: T1, CeoB; remark: listed apart in the source

T1 sequence (Q7D6R7 entry or part of it): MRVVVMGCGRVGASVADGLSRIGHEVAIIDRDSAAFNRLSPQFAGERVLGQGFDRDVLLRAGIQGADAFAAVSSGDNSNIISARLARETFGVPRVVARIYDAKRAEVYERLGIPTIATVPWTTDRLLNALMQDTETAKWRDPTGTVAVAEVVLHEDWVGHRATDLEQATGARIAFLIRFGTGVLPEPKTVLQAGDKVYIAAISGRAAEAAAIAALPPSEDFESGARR
T2 sequence (P9WQL5 whole entry): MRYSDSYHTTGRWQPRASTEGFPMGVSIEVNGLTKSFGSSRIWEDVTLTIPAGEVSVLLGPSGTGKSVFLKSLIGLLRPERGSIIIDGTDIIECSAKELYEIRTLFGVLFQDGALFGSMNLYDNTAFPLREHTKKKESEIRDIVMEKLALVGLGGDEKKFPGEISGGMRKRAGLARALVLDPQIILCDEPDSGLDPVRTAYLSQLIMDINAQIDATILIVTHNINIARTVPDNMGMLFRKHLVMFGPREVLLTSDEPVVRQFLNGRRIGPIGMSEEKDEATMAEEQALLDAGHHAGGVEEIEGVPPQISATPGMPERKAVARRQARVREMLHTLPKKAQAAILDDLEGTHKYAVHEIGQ

SMILES: CC(C)[C@@H](C)/C=C/[C@@H](C)[C@H]1CC[C@H]2C3=CC=C4C[C@@H](O)CC[C@]4(C)C3=CC[C@]12C [dehydroergosterol, ergosta-5,7,9(11),22-tetraen-3β-ol]
- DHE fluorescence increase (ex 338 nm, em 381 nm) (CeoB [1]): incubation of CeoB with DHE resulted in significantly higher DHE fluorescence signal

SMILES: Nc1ncnc2c1ncn2[C@@H]1O[C@H](COP(=O)(O)OP(=O)(O)OP(=O)(O)O)[C@@H](O)[C@H]1O [ATP]
- ADP-Glo kinase assay (luminescence) (MceG): purified MceG exhibited ATPase activity

SMILES: CC(C)CCC[C@@H](C)[C@H]1CC[C@H]2[C@@H]3CC=C4C[C@@H](O)CC[C@]4(C)[C@H]3CC[C@]12C [cholesterol]
- band intensity at 65oC/50oC (CeoB [2]): the presence of cholesterol resulted in an increase in CeoB thermostability
